Results from PMC3066543, “Procyanidins are potent inhibitors of LOX-1: a new player in the French Paradox” (Proceedings of the Japan Academy. Series B, Physical and …, 2011).

How the values were obtained:
human LOX-1 = biological target: T1, human LOX-1 (Homo sapiens, UniProt P78380); assay: DiI-oxLDL binding to LOX-1-CHO cells (4 ℃, 45 min); type: cell-based
T1 construct: expressed in transfected cells; host or cells: CHO-K1 (LOX-1-CHO), doxycycline-induced
Procedure: Tetracycline-inducible human LOX-1 (tagged with V5-6×His at C-terminus) expressing CHO-K1 (LOX-1-CHO) cells were maintained as previously described.[8]) The cells were seeded in 96-well plate at 10^4 cells/well in the presence of doxycycline (1 µg/mL) (Calbiochem, La Jolla, CA, USA) and were incubated in Ham’s F-12 medium containing 10% FBS at 37 ℃ for 24 h. After being washed with the medium without FBS, the cells were treated with foodstuff extracts or an anti-LOX-1 antibody at the final concentration of 10 µg/mL for 1 h. […] After washing, the cells were fixed with 10% formalin, and were stained with 4′,6-diamidino-2-phenylindole (DAPI) (Sigma, St. Louis, MO, USA). The binding of DiI-oxLDL to LOX-1-CHO cells were determined similarly to the uptake assay, except that the incubation of DiI-oxLDL was performed at 4 ℃ for 45 min. The samples were subjected to fluorescence microscopic analysis (Axiovert 200M, Zeiss, Oberkochen, Germany) or quantitative fluorescence analysis using the IN Cell analyzer system (GE Healthcare, Fairfield, CT, USA). Cell-associated DiI-oxLDL was determined as a ratio of DiI-oxLDL fluorescence intensity per cell in the presence of foodstuff extracts to that in the absence of extracts. All experiments were conducted in more than triplicates. For the determination of fluorescence quenching by procyanidins, the fluorescence was also measured before washing out unbound DiI-oxLDL (Spectramax, Molecular Devices, Sunnyvale, CA, USA). The final concentration of DMSO was less than 0.1% of total volume.

[1] = Plasma concentrations of procyanidin B2 and C1 in rats given OPC; type: in vivo; details: male, stroke-prone spontaneously hypertensive (SHR-SP), rat, po, 0.5 % (w/v) OPC in drinking saline, rats given 0.5% OPC orally in drinking saline for two days, sampled 7:00–8:00
Procedure: All protocols were approved by the Institutional Animal Care and Use Committee of the National Cerebral and Cardiovascular Center. Animals were individually housed at 23 ± 2 ℃ with 12 h light-dark cycles (7:00–19:00 light-on). Eight-week-old male stroke-prone spontaneously hypertensive rats (SHR-SP) (CLEA Japan, Tokyo, Japan) were divided into two groups (n = 8 each) with similar blood pressure, heart rates and body weights (tail cuff and pulse transducer system, BP-98A, Softron, Tokyo, Japan). They were given high fat diet without cholic acid or vitamin E (CLEA Japan, Tokyo, Japan) and physiological saline as drinking water for 2 weeks. Half of the rats received physiological saline containing 0.5%(w/v) oligomeric procyanidins (OPC) with various chain lengths purified from apples. At the end of the study, the rats were euthanized with isoflurane inhalation and blood was collected from vena cava between 11:00–14:00. The rats were perfused systemically with physiological saline for Oil Red O staining. Total cholesterol, high-density lipoprotein (HDL) cholesterol, triglyceride, and thiobarbituric acid reactive substance (TBARS) were determined enzymatically using commercially available kits (Wako Pure Chemical Industries, Osaka, Japan; Zeptometrix corporation, Buffalo, NY, USA). […]

Row | Structure (SMILES) | IC50 (human LOX-1; DiI-oxLDL 10 µg/mL) [nM] | concentration at 2 days [1] [ng/mL] | fluorescence of DiI-oxLDL in LOX-1-CHO cells (binding, microscopy) (human LOX-1; 300 ng/mL, DiI-oxLDL 10 µg/mL, Fig. 4A) | IC50 (human LOX-1; DiI-oxLDL 1 µg/mL, data not shown) [nM] | IC50 (human LOX-1; DiI-oxLDL 3 µg/mL, data not shown) [nM]
1 | Oc1cc(O)c2c(c1)OC(c1ccc(O)c(O)c1)C(O)C2c1c(O)cc2c(c1O)C(c1c(O)cc(O)c3c1OC(c1ccc(O)c(O)c1)C(O)C3)C(O)C(c1ccc(O)c(O)c1)O2 (stereo not drawn) [epicatechin(4β-6)epicatechin(4β-8)catechin] | 54.2 | – | – | – | –
2 | Oc1cc(O)c2c(c1)OC(c1ccc(O)c(O)c1)C(O)C2c1c(O)cc2c(c1O)C(c1c(O)cc(O)c3c1OC(c1ccc(O)c(O)c1)C(O)C3)C(O)C(c1ccc(O)c(O)c1)O2 (stereo not drawn) [epicatechin(4β-6)epicatechin(4β-8)epicatechin] | 84.2 | – | – | – | –
3 | Oc1cc(O)c2c(c1)OC(c1ccc(O)c(O)c1)C(O)C2c1c(O)cc(O)c2c1OC(c1ccc(O)c(O)c1)C(O)C2c1c(O)cc(O)c2c1OC(c1ccc(O)c(O)c1)C(O)C2 (stereo not drawn) [epicatechin(4β-8)epicatechin(4β-8)catechin] | 47.3 | – | – | – | –
4 | Oc1cc(O)c2c(c1)O[C@H](c1ccc(O)c(O)c1)[C@H](O)[C@H]2c1c(O)cc(O)c2c1O[C@H](c1ccc(O)c(O)c1)[C@H](O)C2 [procyanidin B2, epicatechin(4β-8)epicatechin] | – | 7.9 ± 1.8 | – | – | –
5 | Oc1cc(O)c2c(c1)O[C@H](c1ccc(O)c(O)c1)[C@H](O)[C@H]2c1c(O)cc(O)c2c1O[C@H](c1ccc(O)c(O)c1)[C@H](O)[C@H]2c1c(O)cc(O)c2c1O[C@H](c1ccc(O)c(O)c1)[C@H](O)C2 [procyanidin C1, epicatechin(4β-8)epicatechin(4β-8)epicatechin] | 58.8 | 4.9 ± 1.9 | significantly attenuated | 8.08 | 30
